The source of these data is patent US20050043378A1, “LTA4H modulators” (priority 2003, published 2005).

In test [1] the target is T1, recombinant human LTA4 hydrolase (rhLTA4H) (Homo sapiens, UniProt P09960).
T1 construct: made in house; host or cells: Spodoptera frugiperda (Sf-9) cells, baculovirus (pFastBac1)
T1 sequence (P09960 1-611): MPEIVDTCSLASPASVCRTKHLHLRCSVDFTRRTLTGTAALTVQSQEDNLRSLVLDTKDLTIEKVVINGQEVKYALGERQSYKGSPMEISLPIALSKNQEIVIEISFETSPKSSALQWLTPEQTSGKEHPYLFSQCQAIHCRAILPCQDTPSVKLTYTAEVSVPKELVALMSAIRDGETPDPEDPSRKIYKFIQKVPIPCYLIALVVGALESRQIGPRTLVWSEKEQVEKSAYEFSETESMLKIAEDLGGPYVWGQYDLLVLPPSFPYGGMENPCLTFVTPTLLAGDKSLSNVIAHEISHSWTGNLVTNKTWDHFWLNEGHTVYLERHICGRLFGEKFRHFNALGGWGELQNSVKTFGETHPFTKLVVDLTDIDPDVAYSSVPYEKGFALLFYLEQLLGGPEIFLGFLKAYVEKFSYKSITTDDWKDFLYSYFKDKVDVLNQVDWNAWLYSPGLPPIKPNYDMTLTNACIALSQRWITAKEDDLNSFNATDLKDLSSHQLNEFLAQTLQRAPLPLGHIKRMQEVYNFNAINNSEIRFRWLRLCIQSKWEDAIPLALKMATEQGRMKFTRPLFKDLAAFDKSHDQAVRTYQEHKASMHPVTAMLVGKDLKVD
The experiment in a line: Recombinant human LTA4 hydrolase assay for LTA4 hydrolase inhibitor activity.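 Also: enzyme expressed in Sf-9 insect cells, compound preincubated 10 min with enzyme, 10 min reaction at room temperature, uninhibited reaction as positive control, enzyme-free blank as negative control.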 The format is biochemical. The note with it: LTA4 substrate, LTB4 by immunoassay, average of one to three determinations.

Test [2] has as its system LTB4 production by calcium ionophore-stimulated murine blood. As to the kind of experiment: LTB4 production by calcium ionophore-stimulated murine blood for LTA4H inhibitor activity. The format is cell-based, CD-1 mice. The settings on record: diluted CD-1 mouse whole blood, A23187 stimulation, LTB4 by immunoassay; read-out: IC50.

For the molecule `OCCC1CCCCN1Cc1ccc(Oc2nc3ccccc3s2)cc1` (centres unmarked) [Example 288, 2-{1-[4-(Benzothiazol-2-yloxy)-benzyl]-piperidin-2-yl}-ethanol], the IC50 (usually the point on the concentration scale where inhibition reaches its midpoint) turned out to be 0.004 µM in test [1] and 0.057 µM in test [2].

Take `O=C(O)C1CCCCN1CCc1ccc(Oc2nc3ccccc3s2)cc1` (centres unmarked) [Example 156, 1-{2-[4-(Benzothiazol-2-yloxy)-phenyl]-ethyl}-piperidine-2-carboxylic acid]: the concentration for half-maximal inhibition (IC50) amounted to 0.007 µM in test [1] and 2 µM in test [2].

`OCCC1CCN(Cc2ccc(Oc3nc4ccccc4s3)cc2)CC1` [Example 296, 2-{1-[4-(Benzothiazol-2-yloxy)-benzyl]-piperidin-4-yl}-ethanol]: the IC50 is 0.033 µM in test [1] and 0.133 µM in test [2].

With `OCCN(CCc1ccc(Oc2nc3ccccc3s2)cc1)CC1CC1` [Example 380, 2-({2-[4-(Benzothiazol-2-yloxy)-phenyl]-ethyl}-cyclopropylmethyl-amino)-ethanol], the figures for the IC50 in test [1] and in test [2] were 0.006 µM and 0.017 µM, respectively.

For the molecule `O=C1C[C@@H](O)CN1C1CCN(CCc2ccc(Oc3nc4ccccc4s3)cc2)CC1` [Example 334, (R)-1-(1-{2-[4-(Benzothiazol-2-yloxy)-phenyl]-ethyl}-piperidin-4-yl)-4-hydroxy-pyrrolidin-2-one], the IC50 in test [1] was determined as 0.1 µM; in test [2], 0.453 µM.

Take `OCC1CCCN(CCc2ccc(Oc3nc4ccccc4s3)cc2)C1` (centres unmarked) [Example 161, (1-{2-[4-(Benzothiazol-2-yloxy)-phenyl]-ethyl}-piperidin-3-yl)-methanol]: the IC50 stood at 0.001 µM in test [1] and 0.1 µM in test [2].

With `O=C1C[C@@H](O)CN1C1CCN(CCOc2ccc(Oc3nc4ccccc4s3)cc2)CC1` [Example 261, (R) 1-(1-{2-[4-(Benzothiazol-2-yloxy)-phenoxy]-ethyl}-piperidin-4-yl)-4-hydroxy-pyrrolidin-2-one], the values for the IC50 in test [1] and in test [2] were 0.033 µM and 0.081 µM, respectively.

As to `CCN(CCCN1CCCC1=O)Cc1ccc(Oc2nc3ccccc3s2)cc1` [Example 437, 1-(3-{[4-(Benzothiazol-2-yloxy)-benzyl]-ethyl-amino}-propyl)-pyrrolidin-2-one], the IC50 was found to be 0.021 µM in test [1] and 0.105 µM in test [2].

Turning to `CN(C)CCOc1ccc(Oc2nc3ccccc3o2)cc1` [Example 46, {2-[4-(Benzooxazol-2-yloxy)-phenoxy]-ethyl}-dimethyl-amine], the IC50 in test [1] is 0.017 µM; in test [2], 0.029 µM.

For the molecule `OC1CCN(CCc2ccc(Oc3nc4ccccc4[nH]3)cc2)CC1` [Example 127, 1-{2-[4-(1H-Benzoimidazol-2-yloxy)-phenyl]-ethyl}-piperidin-4-ol], in test [2], the IC50 is 0.376 µM.

As for `OCC1CCN(CCOc2ccc(Oc3nc4ccccc4o3)cc2)CC1` [Example 13, (1-{2-[4-(Benzooxazol-2-yloxy)-phenoxy]ethyl}-piperidin-4-yl)-methanol], in test [2], the IC50 stood at 0.041 µM.

For `CCOC(=O)NC1CCN(Cc2ccc(Oc3nc4ccccc4s3)cc2)CC1` [Example 462, {1-[4-(Benzothiazol-2-yloxy)-benzyl]-piperidin-4-yl}-carbamic acid ethyl ester], the IC50 is 0.027 µM in test [1] and 0.144 µM in test [2].

Consider `OCC1CCN(CCOc2ccc(Oc3nc4ccccc4[nH]3)cc2)CC1` [Example 133, (1-{2-[4-(1H-Benzoimidazol-2-yloxy)-phenoxy]-ethyl}-piperidin-4-yl)-methanol], for which the results for the IC50 in test [1] and in test [2] were 0.111 µM and 0.29 µM, respectively.

Regarding `OC1CCN(CCOc2ccc(Oc3nc4ccccc4[nH]3)cc2)CC1` [Example 134, 1-{2-[4-(1H-Benzoimidazol-2-yloxy)-phenoxy]-ethyl}-piperidin-4-ol], the 50% inhibitory concentration (IC50) in test [1] turned out to be 0.11 µM; in test [2], 0.436 µM.

Regarding `OCC1CCCCN1Cc1ccc(Oc2nc3ccccc3s2)cc1` (centres unmarked) [Example 298, {1-[4-(Benzothiazol-2-yloxy)-benzyl]-piperidin-2-yl}-methanol], the IC50 came out at 0.015 µM in test [1] and 0.069 µM in test [2].

As to `OCCCN(CCc1ccc(Oc2nc3ccccc3s2)cc1)C1CC1` [Example 198, 3-({2-[4-(Benzothiazol-2-yloxy)-phenyl]-ethyl}-cyclopropyl-amino)-propan-1-ol], in test [2], the IC50 is 0.039 µM.

Turning to `OCC1CCCN(Cc2ccc(Oc3nc4ccccc4s3)cc2)C1` (centres unmarked) [Example 302, {1-[4-(Benzothiazol-2-yloxy)-benzyl]-piperidin-3-yl}-methanol], the IC50 in test [1] was found to be 0.06 µM; in test [2], 0.212 µM.

In the case of `CCCN(CCc1ccc(Oc2nc3ccccc3o2)cc1)CC1CC1` [Example 92, {2-[4-(Benzooxazol-2-yloxy)-phenyl]-ethyl}-cyclopropylmethyl-propyl-amine], the IC50 in test [1] turned out to be 0.001 µM.

Consider `OC(COc1ccc(Oc2nc3ccccc3o2)cc1)CN1CCCC1` (centres unmarked) [Example 135, 1-[4-(Benzooxazol-2-yloxy)-phenoxy]-3-pyrrolidin-1-yl-propan-2-ol], for which the IC50 in test [1] was 0.092 µM.

For the molecule `c1ccc2sc(Oc3ccc(CCN4CCC(c5nnn[nH]5)CC4)cc3)nc2c1` [Example 262, 2-(4-{2-[4-(1H-Tetrazol-5-yl)-piperidin-1-yl]-ethyl}-phenoxy)-benzothiazole], the IC50 in test [1] was determined as 0.004 µM.

With `NC(=O)C1CCCN(CCc2ccc(Oc3nc4ccccc4s3)cc2)C1` (centres unmarked) [Example 31, 1-{2-[4-(Benzothiazol-2-yloxy)-phenyl]-ethyl}-piperidine-3-carboxylic acid amide], the IC50 in test [1] worked out at 0.017 µM.

As to `O=C1CCCN1C1CCN(CCOc2ccc(Oc3nc4ccccc4[nH]3)cc2)CC1` [Example 231, 1-(1-{2-[4-(1H-Benzoimidazol-2-yloxy)-phenoxy]-ethyl}-piperidin-4-yl)-pyrrolidin-2-one], in test [1], the concentration for half-maximal inhibition (IC50) stood at 0.018 µM.

Turning to `OC1(c2ccccc2)CCN(Cc2ccc(Oc3nc4ccccc4s3)cc2)CC1` [Example 358, 1-[4-(Benzothiazol-2-yloxy)-benzyl]-4-phenyl-piperidin-4-ol], the IC50 in test [1] was 0.011 µM.

In the case of `O=C(O)CCN(CCc1ccc(Oc2nc3ccccc3s2)cc1)Cc1ccccc1` [Example 192, 3-({2-[4-(Benzothiazol-2-yloxy)-phenyl]-ethyl}-benzyl-amino)-propionic acid], the IC50 in test [1] is 0.003 µM.

Take `CCN(CC)CCOc1ccc(Oc2nc3ccccc3o2)cc1` [Example 484, {2-[4-(Benzooxazol-2-yloxy)-phenoxy]-ethyl}-diethyl-amine]: the values for the IC50 in test [1] and in test [2] were 0.019 µM and 0.011 µM, respectively.

Consider `COC(=O)NC1CCN(Cc2ccc(Oc3nc4ccccc4s3)cc2)CC1` [Example 363, {1-[4-(Benzothiazol-2-yloxy)-benzyl]-piperidin-4-yl}-carbamic acid methyl ester], for which, in test [1], the IC50 was found to be 0.004 µM.

With `c1ccc2[nH]c(Oc3ccc(CCN4CCCCC4)cc3)nc2c1` [Example 230, 2-[4-(2-Piperidin-1-yl-ethyl)-phenoxy]-1H-benzoimidazole], the half-maximal inhibitory concentration (IC50) in test [1] is 0.036 µM.

Regarding `O=C(O)CC1CCCN(CCc2ccc(Oc3nc4ccccc4s3)cc2)C1` (centres unmarked) [Example 157, (1-{2-[4-(Benzothiazol-2-yloxy)-phenyl]-ethyl}-piperidin-3-yl)-acetic acid], the IC50 in test [1] was determined as 0.001 µM.

As for `c1ccc2sc(Oc3ccc(OCCN4CCC(c5nnn[nH]5)CC4)cc3)nc2c1` [Example 270, 2-(4-{2-[4-(1H-Tetrazol-5-yl)-piperidin-1-yl]-ethoxy}-phenoxy)-benzothiazole], in test [1], the 50% inhibitory concentration (IC50) turned out to be 0.016 µM.
